The results in this text go back to patent US7678794B2, “Potentiators of glutamate receptors” (Eli Lilly and Company, priority 2004, dated 2010).

Molecules are shown by their SMILES.

As a reminder, the IC50 is the concentration at which inhibition is half-maximal.

This assay deals with T1, human CysLT1 receptor (Homo sapiens, UniProt Q9Y271).
T1 construct: expressed in transfected cells; host or cells: AV12-664 (ATCC-9595)
T1 sequence (Q9Y271 1-337): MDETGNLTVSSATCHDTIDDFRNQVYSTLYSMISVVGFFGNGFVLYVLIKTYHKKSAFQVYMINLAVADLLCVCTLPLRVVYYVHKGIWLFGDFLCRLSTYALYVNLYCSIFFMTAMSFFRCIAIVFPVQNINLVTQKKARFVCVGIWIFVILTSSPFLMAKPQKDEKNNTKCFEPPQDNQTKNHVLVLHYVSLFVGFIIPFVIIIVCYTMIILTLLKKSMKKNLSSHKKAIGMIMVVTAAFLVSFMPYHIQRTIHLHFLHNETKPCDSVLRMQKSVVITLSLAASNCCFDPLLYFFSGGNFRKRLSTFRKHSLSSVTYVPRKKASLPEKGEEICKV
Nature of the assay: Antagonism of LTD4-induced increase in intracellular calcium within a CysLT1 receptor expressing cell line (FLIPR). The class given is cell-based. Particulars: AV12-664 cells expressing human CysLT1; 6 nM LTD4; read-out: antagonism of CysLT1 receptors, IC50. An excerpt: Antagonism of Cysteinyl-leukotriene D4 (LTD4)—Induced Increase in Intracellular Calcium within a Cysteinyl-Leukotriene 1 (CysLT1) Receptor Expressing Cell Line
Confluent cultures are passaged weekly. Intracellular calcium levels are monitored in the CysLT1-expressing cells with the addition of LTD4, with or without prior exposure to the compounds being tested as antagonists with a Fluorometric Imaging Plate Reader (FLIPR, Molecular Devices). The following buffer is used throughout as an assay buffer: Hanks Buffered Saline Solution without phenol red (GIBCO), with 10 mM HEPES pH 7.4. Cells that had been plated 48 hours prior at a density of 20-25,000 cells per well in a 96-well plate are loaded with a calcium-sensitive dye for 90 minutes at 25° C. Fluo-3 (2 mM in DMSO, Molecular Probes) is mixed with an equal volume of 10% pluronic acid in DMSO, and diluted to 8 μM in the buffer described above containing 10% fetal bovine serum to make the loading buffer. Following loading of the cells, the buffer is removed and replaced with assay buffer prior to drug addition and monitoring on the FLIPR for several minutes. […] Least squares curve fitting with a four-parameter equation is applied to the resulting dose-% inhibition curve to determine the resulting IC50 values.
Regarding `CCCc1c(OCc2ccc(NC(=O)Nc3cccc(C(=O)O)c3)cc2)ccc(C(C)=O)c1O` [Example 1, 3-{3-[4-(4-acetyl-3-hydroxy-2-propyl-phenoxymethyl)-phenyl]-ureido}-benzoic acid], the IC50 is under 500 nM.

On to `CCCc1c(OCc2ccc(S(=O)(=O)Nc3ccccc3-c3nn[nH]n3)cc2)ccc(C(C)=O)c1O` [Example 10, 4-(4-Acetyl-3-hydroxy-2-propyl-phenoxymethyl)-N-[2-(2 H-tetrazol-5-yl)-phenyl]-benzene-sulfonamide], for which the IC50 is under 500 nM.

With `CCCc1c(OCc2cccc(S(=O)(=O)Nc3cccc(-c4nn[nH]n4)c3)c2)ccc(C(C)=O)c1O` [Example 12, 3-(4-Acetyl-3-hydroxy-2-propyl-phenoxymethyl)-N-[3-(2 H-tetrazol-5-yl)-phenyl]-benzene-sulfonamide], the IC50 was under 500 nM.

Turning to `CCCc1c(OCc2cccc(S(=O)(=O)Nc3ccccc3-c3nn[nH]n3)c2)ccc(C(C)=O)c1O` [Example 13, 3-(4-Acetyl-3-hydroxy-2-propyl-phenoxymethyl)-N-[2-(2 H-tetrazol-5-yl)-phenyl]-benzene-sulfonamide], the half-maximal inhibitory concentration (IC50) was under 500 nM.
